Measurements reported in patent publication US20230123140A1, “DOSE TREATMENTS OF TAUOPATHIES” (AC Immune SA, priority 2020, published 2023).

Key:
[1] = tested on: Tg4510 transgenic mouse model; test: Studies of ACI-3024 in the Tg4510 transgenic mouse model (CSF target level); assay type: in vivo; conditions: derived from studies in Tg4510 transgenic mouse model
Experimental: The present invention is directed to a compound ACI-3024 for use in the treatment, prevention or alleviation of a disorder or an abnormality associated with Tau protein aggregates or a tauopathy comprising administering said compound at an amount up to or equal to 1500 mg/day to a human subject in need thereof wherein the compound ACI-3024 is constantly present in the human subject CSF at a concentration above or equal to 30 nM level at predose, preferably above or equal to 90 nM level at predose. The predefined predose level of ACI-3024 of 30 nM is derived from studies of ACI-3024 in the Tg4510 transgenic mouse model which reflects the clinical manifestation of tauopathies and determines the minimum concentration of the compound in the CSF necessary to achieve clinical efficacy before another dose of the same compound is given (ie a threshold value below which efficacy would be lost). Preferably, the compound ACI-3024 is present in the human subject CSF at a concentration above or equal to 30 nM, preferably above or equal to 90 nM, during the treatment.

healthy subjects = test: First-in-human study, single ascending dose (SAD) part: safety and tolerability; assay type: in vivo; conditions: for number of AEs: healthy subjects
Excerpt: A First-In-Human, Randomized, Placebo-Controlled, Double-Blind, SAD/MAD Study to Assess the Safety, Tolerability, Pharmacokinetics, and Pharmacodynamics of ACI-3024
The objective of the study is to assess the safety, tolerability, pharmacokinetics (PK), and pharmacodynamics (PD) of single ascending doses (SAD) and multiple ascending doses (MAD) of ACI-3024 in a first-in-human, randomized, placebo-controlled, double-blind, sequential SAD/MAD study with open-label food effect and pharmacodynamic assessment arms. The study comprises different parts to be conducted in Healthy Volunteers: • 1) one Single Ascending Dose (SAD) part in which several cohorts are being investigated with single ascending doses of ACI-3024. The food effect is also explored in this part. • 2) one Multiple Ascending Dose (MAD) part in which several cohorts are being investigated with multiple ascending doses of ACI-3024. Each study part is assessing the safety, tolerability, pharmacokinetics and pharmacodynamics of ACI-3024.
This part comprised a single dose, sequential group design. Overall, 40 healthy non-elderly male subjects were enrolled in 5 cohorts (Cohorts S1 to S5), with each cohort consisting of 8 subjects.
No Japanese subjects were enrolled in Cohort S1. For Cohorts S2 through S5, 4 Japanese subjects and 4 non Japanese subjects were enrolled.
In each of Cohorts S1 to S5, 6 subjects (including 3 Japanese subjects in Cohorts S2 through S5) received ACI-3024 and 2 subjects (including 1 Japanese subject in Cohorts S2 through S5) received placebo. All doses were administered in the fasting state in accordance with a randomization schedule on the morning of Day 1, except for subjects in the food-effect cohort (Cohort S4), who were dosed 30 minutes after starting a high-fat breakfast in Treatment Period 2 only. Each subject received only a single dose of ACI-3024 or placebo during the study, except for subjects in the food effect cohort, who received a single dose of ACI-3024 or placebo in the fasting state followed by a single dose of ACI-3024 in the fed state. Thus, subjects in Cohort S4 received either 2 identical doses of ACI-3024 (6 subjects) or 1 dose of placebo and 1 dose of ACI-3024 (2 subjects). Six subjects of Cohort S4 received 750 mg dose of ACI-3024 and 2 subjects received placebo. After a period of wash-up all 8 subjects of Cohort S4 received a fat-breakfast and a 750 mg dose of ACI-3024.
The total duration of study participation for each subject (from Screening through Follow-up visit) was approximately 37 days, except for subjects in the food-effect cohort (Cohort S4), for whom the total duration was up to approximately 44 days.

[2] = Toxicokinetics in the 4-week mini-pig toxicity study; assay type: in vivo; conditions: for AUC(0-t) / Cmax / Tmax: Gottingen, minipig, plasma, Day 28, 450 mg/kg oral
Experimental: Doses tested, 50, 150 and 450 mg/kg were given by p.o. to 3 animals/sex/group daily. The control animals were administered vehicle. The dose volume was 5 mL/kg for all groups.
Toxico Kinetic (TK) was evaluated on all animals on study Day 1 and Day 28 at different time points.

[3] = tested on: Central Nervous System function; test: Central nervous system evaluation in mice (functional observation battery); assay type: in vivo, mouse; conditions: single oral administration 100, 300 or 750 mg/kg, female CD1 mice
Experimental: This study was conducted to evaluate the potential modifications of central nervous system (CNS) activity by ACI-3024 when given as single dose to CD1 mice.
Doses of 100, 300 and 750 mg/kg were administered by oral gavage to 8 females/group. The control animals were administered vehicle. The dose volume was 10 mL/kg for all groups. Approximately 2, 4, 6 and 24 hours after the treatment, each mouse was subjected to a functional observation battery in order to investigate possible treatment-induced effects on the CNS or in any of its domains: neurologic, autonomic and behavioral.

[4] = both sexes, average M/F minipigs

Fc1ccc2c3c([nH]c2c1)CCN(c1ccc2oc(N4CCOCC4)nc2c1)C3 [ACI-3024]
minimum predose CSF level necessary for efficacy (target) [1]: 30 nM | SAEs or AEs leading to discontinuation (healthy subjects; SAD cohorts, 25 to 1500 mg): no SAEs or AEs leading to discontinuation from the study | vital signs, ECG values, physical or neurological examinations (healthy subjects; SAD cohorts, 25 to 1500 mg): no clinically significant observations | severity of AEs (healthy subjects; SAD cohorts, 25 to 1500 mg (all AEs of the part, placebo included)): mild | overall safety and tolerability (healthy subjects; SAD study, up to the highest administered dose of 1500 mg): safe and well tolerated | number of AEs (healthy subjects; single oral dose 25 mg): 2 | number of AEs (healthy subjects; single oral dose 100 mg): 0 | number of AEs (healthy subjects; single oral dose 300 mg): 3 | number of AEs (healthy subjects; single oral dose 750 mg (fed and fasted states)): 6 | number of AEs (healthy subjects; single oral dose 1500 mg): 2 | dose proportionality of plasma exposure ([2]; 50 to 450 mg/kg, except males on Day 1): approximately dose-proportionally | AUC(0-t) ([2]; female minipigs): 101 µg·h/mL | Cmax ([2]; female minipigs): 7350 ng/mL | Tmax ([2]; female minipigs): 4 h | AUC(0-t) ([2]; male minipigs): 233 µg·h/mL | Cmax ([2]; male minipigs): 12300 ng/mL | Tmax ([2]; male minipigs): 6 h | AUC(0-t) [2, 4]: 167 µg·h/mL | Cmax [2, 4]: 9840 ng/mL | Tmax [2, 4]: 5 h | effect on Central Nervous System function [3]: no effect
